In ChEMBL document CHEMBL1201862, “PubChem BioAssay data set” (2004):
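Dose response: 5 concentrations. Exposure: 48 h. Format: 96-well plates. Endpoint: linear interpolation; highest concentration if not reached. GI50 is the concentration that inhibits growth by half.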 The source made the active and inactive calls. Cut-off read from the data, not from the text of the source: active = GI50 up to about 1.1 µM and inactive = higher.

Legend:
Test in all cases: DTP human tumour cell line panel, 48 h
BT-549 = test system: BT-549
K562 = test system: K562
MDA-MB-231 = test system: MDA-MB-231
NCI-H522 = test system: NCI-H522
CAKI-1 = test system: CAKI-1
MCF7 = test system: MCF7
SR = test system: SR
TK-10 = test system: TK-10
MDA-N = test system: MDA-N
COLO 205 = test system: COLO 205
OVCAR-8 = test system: OVCAR-8
SW-620 = test system: SW-620
IGROV-1 = test system: IGROV-1
SNB-19 = test system: SNB-19
HOP-62 = test system: HOP-62
SN12C = test system: SN12C
RPMI-8226 = test system: RPMI-8226
RXF 393 = test system: RXF 393
SNB-75 = test system: SNB-75
UACC-62 = test system: UACC-62

**Q.** For `OCCOCCO[P+]1(OCCOCCO)n2c3ccc2C(c2ccccc2)=C2C=CC(=N2)C(c2ccccc2)=c2ccc(n21)=C(c1ccccc1)C1=NC(=C3c2ccccc2)C=C1`, which GI50 (BT-549) is on record?
**A.** 0.0385 µM (active)

**Q.** And the GI50 (K562)?
**A.** < 0.0188 µM (active)

**Q.** And the GI50 (MDA-MB-231)?
**A.** 0.0736 µM (active)

**Q.** And the GI50 (NCI-H522)?
**A.** 0.186 µM (active)

**Q.** What about the GI50 (CAKI-1) of the same compound?
**A.** 1.68 µM (inactive)

**Q.** And the GI50 (MCF7)?
**A.** 0.109 µM (active)

**Q.** And the GI50 (SR)?
**A.** 1 µM (active)

**Q.** And the GI50 (TK-10)?
**A.** 0.426 µM (active)

**Q.** And the GI50 (MDA-N)?
**A.** 0.0314 µM (active)

**Q.** What about the GI50 (COLO 205) of the same compound?
**A.** 0.0206 µM (active)

**Q.** And the GI50 (OVCAR-8)?
**A.** 0.174 µM (active)

**Q.** And the GI50 (SW-620)?
**A.** 0.184 µM (active)

**Q.** And the GI50 (IGROV-1)?
**A.** 0.0261 µM (active)

**Q.** And the GI50 (SNB-19)?
**A.** < 0.01 µM (active)

**Q.** And the GI50 (HOP-62)?
**A.** 0.379 µM (active)

**Q.** And the GI50 (SN12C)?
**A.** 0.11 µM (active)

**Q.** What about the GI50 (RPMI-8226) of the same compound?
**A.** 0.0142 µM (active)

**Q.** And the GI50 (RXF 393)?
**A.** 0.548 µM (active)

**Q.** And the GI50 (SNB-75)?
**A.** 0.0491 µM (active)

**Q.** What about the GI50 (UACC-62) of the same compound?
**A.** 0.0618 µM (active)

**Q.** For `CCN(CC)/[N+]([O-])=N/OCOC(C)=O`, which GI50 (BT-549) is on record?
**A.** > 100 µM (inactive)

**Q.** What about the GI50 (K562) of the same compound?
**A.** > 100 µM (inactive)

**Q.** What about the GI50 (MDA-MB-231) of the same compound?
**A.** > 100 µM (inactive)

**Q.** And the GI50 (NCI-H522)?
**A.** > 100 µM (inactive)

**Q.** And the GI50 (CAKI-1)?
**A.** > 100 µM (inactive)

**Q.** What about the GI50 (MCF7) of the same compound?
**A.** > 100 µM (inactive)

**Q.** What about the GI50 (SR) of the same compound?
**A.** 43.4 µM (inactive)

**Q.** And the GI50 (TK-10)?
**A.** > 100 µM (inactive)

**Q.** And the GI50 (MDA-N)?
**A.** > 100 µM (inactive)

**Q.** What about the GI50 (COLO 205) of the same compound?
**A.** > 100 µM (inactive)

**Q.** And the GI50 (OVCAR-8)?
**A.** > 100 µM (inactive)

**Q.** What about the GI50 (SW-620) of the same compound?
**A.** > 100 µM (inactive)

**Q.** What about the GI50 (IGROV-1) of the same compound?
**A.** > 100 µM (inactive)

**Q.** And the GI50 (SNB-19)?
**A.** > 100 µM (inactive)

**Q.** What about the GI50 (HOP-62) of the same compound?
**A.** > 100 µM (inactive)

**Q.** What about the GI50 (SN12C) of the same compound?
**A.** > 100 µM (inactive)

**Q.** And the GI50 (RPMI-8226)?
**A.** > 100 µM (inactive)

**Q.** And the GI50 (RXF 393)?
**A.** > 100 µM (inactive)

**Q.** What about the GI50 (SNB-75) of the same compound?
**A.** > 100 µM (inactive)

**Q.** What about the GI50 (UACC-62) of the same compound?
**A.** > 100 µM (inactive)

**Q.** Which results are given for `O=C(CCc1cc(O)ccc1O)OCCc1ccccc1`?
**A.** GI50 (BT-549): 11.5 µM (inactive); GI50 (K562): 1.4 µM (inactive); GI50 (MDA-MB-231): 15.6 µM (inactive); GI50 (NCI-H522): 0.28 µM (active); GI50 (CAKI-1): 7.66 µM (inactive); GI50 (MCF7): 15.8 µM (inactive); GI50 (SR): 5.6 µM (inactive); GI50 (TK-10): 14.7 µM (inactive); GI50 (MDA-N): 12.7 µM (inactive); GI50 (COLO 205): 14.2 µM (inactive); GI50 (OVCAR-8): 12.7 µM (inactive); GI50 (SW-620): 16.3 µM (inactive); GI50 (IGROV-1): 12.7 µM (inactive); GI50 (SNB-19): 48.5 µM (inactive); GI50 (HOP-62): 36.1 µM (inactive); GI50 (SN12C): 16.8 µM (inactive); GI50 (RPMI-8226): 0.875 µM (active); GI50 (RXF 393): 11.7 µM (inactive); GI50 (SNB-75): > 64.1 µM (inactive); GI50 (UACC-62): 12.4 µM (inactive)

**Q.** With `O=C(Oc1ccccc1)c1cc2cc(CCl)ccc2oc1=O` as the compound, how does the GI50 (BT-549) read?
**A.** 64.3 µM (inactive)

**Q.** And the GI50 (K562)?
**A.** 5.61 µM (inactive)

**Q.** And the GI50 (MDA-MB-231)?
**A.** 32.1 µM (inactive)

**Q.** And the GI50 (NCI-H522)?
**A.** 6.17 µM (inactive)

**Q.** And the GI50 (CAKI-1)?
**A.** 14.5 µM (inactive)

**Q.** And the GI50 (MCF7)?
**A.** 20.1 µM (inactive)

**Q.** And the GI50 (SR)?
**A.** 28.1 µM (inactive)

**Q.** And the GI50 (TK-10)?
**A.** 17.5 µM (inactive)

**Q.** And the GI50 (MDA-N)?
**A.** 19.9 µM (inactive)

**Q.** What about the GI50 (COLO 205) of the same compound?
**A.** 17.8 µM (inactive)

**Q.** What about the GI50 (OVCAR-8) of the same compound?
**A.** 47.2 µM (inactive)

**Q.** What about the GI50 (SW-620) of the same compound?
**A.** 61.9 µM (inactive)

**Q.** And the GI50 (IGROV-1)?
**A.** 23.3 µM (inactive)

**Q.** And the GI50 (SNB-19)?
**A.** 71.6 µM (inactive)

**Q.** What about the GI50 (HOP-62) of the same compound?
**A.** 26.5 µM (inactive)

**Q.** What about the GI50 (SN12C) of the same compound?
**A.** 23.1 µM (inactive)

**Q.** What about the GI50 (RPMI-8226) of the same compound?
**A.** 33 µM (inactive)

**Q.** What about the GI50 (RXF 393) of the same compound?
**A.** 13.5 µM (inactive)

**Q.** What about the GI50 (SNB-75) of the same compound?
**A.** 21.5 µM (inactive)

**Q.** And the GI50 (UACC-62)?
**A.** 13.4 µM (inactive)

**Q.** For `CC1(C)OCC(C2OC(OC(=O)c3ccc(C(F)(F)F)cc3)C3OC(C)(C)OC23)O1` (stereo not given), which GI50 (BT-549) is on record?
**A.** > 77.4 µM (inactive)

**Q.** What about the GI50 (K562) of the same compound?
**A.** > 77.4 µM (inactive)

**Q.** What about the GI50 (MDA-MB-231) of the same compound?
**A.** 63 µM (inactive)

**Q.** What about the GI50 (NCI-H522) of the same compound?
**A.** > 77.4 µM (inactive)

**Q.** And the GI50 (CAKI-1)?
**A.** > 77.4 µM (inactive)

**Q.** What about the GI50 (MCF7) of the same compound?
**A.** 53.3 µM (inactive)

**Q.** And the GI50 (SR)?
**A.** 23.4 µM (inactive)

**Q.** And the GI50 (TK-10)?
**A.** > 77.4 µM (inactive)

**Q.** And the GI50 (MDA-N)?
**A.** > 77.4 µM (inactive)

**Q.** And the GI50 (COLO 205)?
**A.** > 77.4 µM (inactive)

**Q.** And the GI50 (OVCAR-8)?
**A.** > 77.4 µM (inactive)

**Q.** And the GI50 (SW-620)?
**A.** > 77.4 µM (inactive)

**Q.** And the GI50 (IGROV-1)?
**A.** > 77.4 µM (inactive)

**Q.** And the GI50 (SNB-19)?
**A.** > 77.4 µM (inactive)

**Q.** What about the GI50 (HOP-62) of the same compound?
**A.** 39.9 µM (inactive)

**Q.** What about the GI50 (SN12C) of the same compound?
**A.** > 77.4 µM (inactive)

**Q.** And the GI50 (RPMI-8226)?
**A.** 44.4 µM (inactive)

**Q.** What about the GI50 (RXF 393) of the same compound?
**A.** 28 µM (inactive)

**Q.** What about the GI50 (SNB-75) of the same compound?
**A.** 40.2 µM (inactive)

**Q.** And the GI50 (UACC-62)?
**A.** > 77.4 µM (inactive)

**Q.** What does the source list for `CC(=O)O[C@H]1C(=O)[C@@]2(C)[C@H]([C@H](OC(=O)c3ccccc3)[C@]3(O)C[C@H](OC(=O)[C@H](O)[C@@H](NC(=O)C(C)(O)C(C)O)c4ccccc4)C(C)=C1C3(C)C)[C@]1(OC(C)=O)CO[C@@H]1C[C@@H]2O` (stereo not given in full)?
**A.** GI50 (BT-549): 0.142 µM (active); GI50 (K562): 0.172 µM (active); GI50 (MDA-MB-231): 0.359 µM (active); GI50 (NCI-H522): 0.107 µM (active); GI50 (CAKI-1): 15.5 µM (inactive); GI50 (MCF7): 0.076 µM (active); GI50 (SR): 0.133 µM (active); GI50 (TK-10): 5.69 µM (inactive); GI50 (MDA-N): 0.0308 µM (active); GI50 (COLO 205): 0.0933 µM (active); GI50 (OVCAR-8): 1.42 µM (inactive); GI50 (SW-620): 0.195 µM (active); GI50 (IGROV-1): 0.205 µM (active); GI50 (SNB-19): 0.796 µM (active); GI50 (HOP-62): 0.282 µM (active); GI50 (SN12C): 0.485 µM (active); GI50 (RPMI-8226): 0.0865 µM (active); GI50 (RXF 393): 0.316 µM (active); GI50 (SNB-75): 0.0514 µM (active); GI50 (UACC-62): 0.242 µM (active)
